Here are results for four compounds from patent US12030896B2, “PIKfyve inhibitors” (Mayo Foundation for Medical Education and Research, priority 2018, dated 2024).

The subject of one data set is 468 kinases. The data set is described as follows: Kinase selectivity panel (Treespot dendrogram). Type of data set: binding. The method, then:
In contrast, 50 nM Apilimod inhibited two kinases to 1% or 10%, and 3 kinases to 35% of control. To examine non-specific binding at higher concentrations, Example 1, Example 3, and Apilimod were tested at 5000 nM. […] PIKfyve is represented at the bottom left of each dendrogram.

A further data set deals with IL12 and IL23. The conditions noted are these: myeloid cells; cited from earlier work.
The conditions of data set [1]: oral; cited from earlier work.
The conditions of data set [2]: cited from earlier work.
In another data set the test system is cells in culture. The data set is described as follows: Vacuolization activity in cells in culture. The format is cell-based. The text has this: (§1) As used herein the term “EC50 (μM)” refers to the μM concentration of a compound that is required for 50% activity in a vacuolization assay.
Example 2 is a biotinylated derivative of the compound of Example 1.

A further data set deals with U251. The data set is described as follows: U251 Vacuolization Assay (24h). Type of data set: cell-based. The settings on record: Homo sapiens, U-251. The procedure:
as §1
Example A—U251 Vacuolization Assay Data (24h) for Compounds of Examples 8-56

In another data set the test system is U251 glioblastoma cell. Briefly: Cell killing in combination with vemurafenib. The format is cell-based, human. The settings on record: 10 μM vemurafenib, 0 μM Example 1, 72 hour. The procedure: A 25 mM stock of vemurafenib (obtained from Selleckchem) in DMSO was diluted to 2× the indicated concentration into the cell suspension immediately prior to plating the cell suspension onto the pre-diluted Example 1 or Example 3, to result in a final 1× concentration of both compounds.
See FIG. 13 for showing of U251 glioblastoma cell killing by Example 1 alone or in the presence of 10 μM vemurafenib over a 72 hour time course.

As to `Cc1cccc(/C=N/Nc2cc(N3CCOCC3)nc(OCCc3ccccn3)n2)c1` [Apilimod, 3-Methylbenzaldehyde 2-[6-(4-Morpholinyl)-2-[2-(2-pyridinyl)ethoxy]-4-pyrimidinyl]hydrazine], in the data set on 468 kinases (50 nM, 468 kinases), the “number of kinases blocked to 1% of control” value is “two”, the “number of kinases blocked to 10% of control” value is recorded as “two” and the “number of kinases blocked to 35% of control” value came out at 3. In the data set with 468 kinases (5000 nM), the “number of kinases blocked to 1% activity level” value is listed as 4, the “number of kinases blocked to 10% activity level” value worked out at 9 and the “number of kinases blocked to 35% activity level” value turned out to be 15. Besides, in the data set with 468 kinases (comparison of Example 1, Example 3 and apilimod), the “selectivity for PIKfyve” value is “less specific”. In addition, in the data set with IL12 and IL23, the “IL12 and IL23 production” value is on record as “suppresses”. In addition, in data set [1], the “IFN-gamma production by ex vivo cells” value is “decreased”, the “TH1 / TH2 responses” value is given as “suppressed TH1 but not TH2 responses” and the “inflammatory histopathologic skin changes” value is “markedly reduced”. In addition, the dose limiting toxicity in data set [2] (headache, flushing, hypoesthesia, dizziness, paresthesia) was 105 mg bid. Besides, in data set [2] (oral, 70 mg qd), the “mean improvement in PASI score” value is listed as 46% and the “patients with histologic improvement” value was 47%. For the same compound, in data set [2] (oral), the “IL12 and IL23 expression in skin lesions” value is listed as “significantly reduced”.
One may read the EC50 as the concentration at which the effect is half-maximal. The low end stands for a more potent agent, the high end for a less potent agent. In turn, `O=C(CCCC[C@@H]1SC[C@@H]2NC(=O)N[C@@H]21)Nc1ccc(Nc2nc(N/N=C/c3c[nH]c4ccccc34)nc(N3CCOCC3)n2)cc1` [Example 2, (E)-N-(4-((4-(2-((1H-indol-3-yl)methylene)hydrazinyl)-6-morpholino-1,3,5-triazin-2-yl)amino)phenyl)-5-(2-oxohexahydro-1H-thieno[3,4-d]imidazol-4-yl)pentanamide] showed an EC50 with cells in culture of 8 nM.
Compound `Cc1[nH]c2ccccc2c1/C=N/Nc1nc(Nc2ccc([N+](=O)[O-])cc2)nc(N2CCCCCC2)n1` [Example 56, (E)-4-(azepan-1-yl)-6-(2-((2-methyl-1H-indol-3-yl)methylene)hydrazinyl)-N-(4-nitrophenyl)-1,3,5-triazin-2-amine] showed a concentration giving a half-maximal response (EC50) in the data set on U251 of over 50000 nM.
With `CCCS(=O)(=O)Nc1ccc(F)c(C(=O)c2c[nH]c3ncc(-c4ccc(Cl)cc4)cc23)c1F` [vemurafenib, N-(3-(5-(4-chlorophenyl)-1H-pyrrolo[2,3-b]pyridine-3-carbonyl)-2,4-difluorophenyl)propane-1-sulfonamide, reference compound], the “effect on cell killing, alone” value with U251 glioblastoma cell is recorded as “little effect”.
